Here are results for 36 compounds from patent US20250161338A1, “Compounds for Anti-aging Intervention” (AGENCY FOR SCIENCE, TECHNOLOGY AND RESEARCH, priority 2022, published 2025).

Assay [1] concerns prototrophic yeast strain (CEN.PK113-7D). Put plainly: Propidium iodide fluorescence-based CLS method in yeast (incl. high-throughput screening).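 As to PI intensity: untreated reference is eight DMSO and water control wells per plate.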 In kind it is cell-based, Saccharomyces cerevisiae. The note with it: concentration tested 100 μM; for Yeast CLS increase: Yes/No call of the screen; for PI intensity: solvent DMSO or water, chronological age point Day 7 (72 h growth = Day 1), lower = more survival. The method, then:
Yeast strain was recovered from frozen glycerol stock at 30° C. on YPD agar medium. Yeast was left to propagate in SD medium overnight at 30° C. with shaking at 220 revolutions per minute (rpm). Cells propagated overnight were diluted to a starting optical density at 600 nm (OD600) of approximately 0.2 in fresh SD medium to begin the chronological lifespan (CLS) experiments.
(§1) CLS experiments were performed in 96-well plates with 200 μL yeast culture. Cellular inoculums were transferred into 96-well plates containing serially double-diluted concentrations (0 to 10 nM) of rapamycin. Cellular inoculum was transferred into 96-well plates containing serially double-diluted concentrations (0 to 8 mM) of 2,5-anhydro-D-mannitol, D-fructose, D-mannitol, D-maltose, and D-sorbitol in SD medium. Cells were incubated at 30° C., and the growth was measured at different time points. […] Cell survival was quantified at various age time points by three different approaches: (i) PI fluorescence-based method, (ii) outgrowth in YPD liquid medium, and (iii) spotting assay (FIG. 1).
Yeast cells (40 μL) from different age time points were transferred into a second 96-well plate (different to the 96-well plate in which the CLS analysis as outlined above was performed). Cells were washed and incubated in 100 μL 1×phosphate buffered saline (PBS) with propidium iodide (PI) (5 μg/mL) for 15 minutes in the dark. Positive and negative control samples were included for quantitative analysis. Positive control (cells boiled at 100° C. for 15 minutes) was PI-stained and processed in the same 96-well plate. Samples without PI-stained cells served as the negative control. After incubation, cells were washed and resuspended in 100 μL PBS. The fluorescence reading of the samples (excitation and emission wavelengths at 535 nm and 617 nm, respectively) and OD600 were measured with a microplate reader (BioTek, Winooski, Vermont, United States). The fluorescence intensity of each sample was normalized with OD600. The background fluorescence signal of the unstained negative sample was subtracted from the normalized fluorescence intensity of each sample. The obtained fluorescence intensity of the positive control (boiled dead cells) was considered 0% cell survival. Cell death was validated by allowing the boiled dead cells to grow in medium. Cell survival at different age time points of samples were calculated by normalizing the fluorescence intensity with positive control sample (boiled cells).
High-throughput screening of various chemicals was tested using the same protocol for the propidium iodide fluorescence-based method as described above. The prototrophic yeast strain (CEN.PK113-7D) was grown in the synthetic defined medium with different chemical reagents at their respective single testing concentration (Table 1) in addition to eight replicates of DMSO and water controls in 96-well plates at 30° C.

Assay [2] has the same test system. Put plainly: Yeast outgrowth in YPD liquid medium (CLS of aged cells). In kind it is cell-based, Saccharomyces cerevisiae. As to conditions: for Outgrowth: concentration tested 100 μM, OD600 nm after 24 h in YPD at 30° C., age point day 14; for aged cell survival in yeast: various concentrations, outgrowth relative to Day 2 (FIGS. 22A to D). On the procedure:
as §1
Outgrowth (OD600) of aged cells was measured by the microplate reader. Quantification of cell survival for each age point was determined as relative to Day 1 (considered 100% cell survival). This quantification was performed by using the formula,
[formula] • where OutgrowthDay n refers to the OD600 nm absorbance reading recorded on a specific day, OutgrowthDay 1 refers to the OD600 nm absorbance reading recorded on the first day where 100% cell survival is assumed.
The CLS of the aged cells was further determined by the yeast outgrowth in YPD liquid medium method as described above. […] At chronological age point day 14, 3-μL of culture were transferred to a second 96-well plate containing 200 μL YPD medium.

As for `C#CC1(O)CC[C@H]2[C@@H]3CCC4=CC(=O)CC[C@@H]4[C@H]3CC[C@@]21CC` (mixture of isomers) [Norgestrel, reference compound], in assay [1], the “Yeast CLS increase” value is listed as “No” and the PI intensity was 75,338.8. This compound also showed an Outgrowth in assay [2] of 0.1.
Taken in the same sequence, the figures for `O=C(O)C(O)Cc1ccccc1` (racemic) [DL-3-Phenyllactic acid] were “No”, 65,266.9 and 0.1.
Taken in the same sequence, the figures for `C[S+](C)CCC(N)C(=O)O.[Cl-]` (racemic) [DL-Methionine methylsulfonium (chloride)] were “No”, 66,281.7 and 0.1.
Taken in the same sequence, the figures for `CC(C)(CO)C(O)C(=O)NCCCO` (racemic) [DL-Panthenol] were “No”, 71,468.6 and 0.1.
`NC(CO)C(=O)O` (racemic) [DL-Serine]: in assay [1], the “Yeast CLS increase” value is on record as “Yes” and the PI intensity is 33,155.7. The same compound came in with an Outgrowth in assay [2] of 1.1.
Turning to `O=C[C@H](O)[C@H](O)[C@H](O)CO` (single isomer, unassigned) [D-Ribose(mixture of isomers)], in assay [1], the “Yeast CLS increase” value is recorded as “No” and the PI intensity is reported as 60,023.1. The same compound came in with an Outgrowth in assay [2] of 0.1.
Taken in the same sequence, the figures for `O=C(O)c1ccc(O)cc1O` [2,4-Dihydroxybenzoic acid] were “No”, 76,326.3 and 0.1.
Taken in the same sequence, the figures for `O=C(O)c1ccco1` [2-Furoic acid] were “No”, 72,748.2 and 0.1.
Taken in the same sequence, the figures for `Oc1ccc2ccccc2c1` [2-Naphthol] were “No”, 72,298.9 and 0.1.
For `CCCC(=O)C(=O)O` [2-Oxovaleric acid], in assay [1], the “Yeast CLS increase” value is recorded as “No” and the PI intensity is given as 61,246.4. In assay [2], this compound displayed an Outgrowth of 0.1.
Taken in the same sequence, the figures for `CC(C(=O)O)c1ccccc1` (stereo not shown) [2-Phenylpropionic acid] were “No”, 66,998.4 and 0.1.
Taken in the same sequence, the figures for `Nc1ncnc2c1ncn2[C@H]1C[C@H](O)[C@@H](CO)O1` [2′-Deoxyadenosine] were “No”, 70,796.4 and 0.1.
Taken in the same sequence, the figures for `COc1ccc(C=CC(=O)O)cc1OC` [3,4-Dimethoxycinnamic acid] were “No”, 70,914.2 and 0.1.
With `COc1ccc(CC(=O)O)cc1OC` [3,4-Dimethoxyphenylacetic acid], in assay [1], the “Yeast CLS increase” value was “No” and the PI intensity is on record as 70,394.7. The Outgrowth in assay [2] was 0.1.
Taken in the same sequence, the figures for `O=C(O)c1cc(O)cc(O)c1` [3,5-Dihydroxybenzoic acid] were “No”, 59,369.7 and 0.1.
With `N[C@@H](Cc1ccc(O)c(Cl)c1)C(=O)O` [3-Chloro-L-tyrosine], in assay [1], the “Yeast CLS increase” value is recorded as “No” and the PI intensity is given as 67,122.0. In assay [2], this compound returned an Outgrowth of 0.1.
Taken in the same sequence, the figures for `CCc1ccc(O)cc1` [4-Ethylphenol] were “No”, 58,041.7 and 0.1.
Taken in the same sequence, the figures for `COc1ccc(C=CC(=O)O)cc1` [4-Methoxycinnamic acid] were “No”, 89,890.5 and 0.1.
Taken in the same sequence, the figures for `Cc1cc(=O)oc2cc(O)ccc12` [4-Methylumbelliferone] were “No”, 90,234.6 and 0.1.
Consider `CC(=O)c1ccc(O)c(C(=O)O)c1` [5-Acetylsalicylic acid], for which, in assay [1], the “Yeast CLS increase” value is given as “No” and the PI intensity is 63,538.6. In assay [2], this compound had an Outgrowth of 0.1.
Take `O=c1[nH]cc(F)c(=O)[nH]1` [5-fluorouracil, reference compound]: the “aged cell survival in yeast” value in assay [2] is “survived longer as compared to those without treatment”.
Regarding `CC(C)CCC[C@@H](C)[C@H]1CC[C@H]2[C@@H]3CC[C@H]4CC(=O)CC[C@]4(C)[C@H]3CC[C@]12C` [5α-Cholestan-3-one], in assay [1], the “Yeast CLS increase” value was “No” and the PI intensity was 62,022.6. In addition, the Outgrowth in assay [2] is 0.1.
Taken in the same sequence, the figures for `C[C@H](O)[C@H](O)c1cnc2nc(N)[nH]c(=O)c2n1` [6-Biopterin] were “No”, 75,974.5 and 0.1.
Taken in the same sequence, the figures for `CC(C)CCC[C@](C)(O)[C@H]1CC[C@H]2[C@@H]3CC=C4C[C@@H](O)CC[C@]4(C)[C@H]3CC[C@@]21C` [20(S)-Hydroxycholesterol] were “No”, 75,450.9 and 0.1.
Taken in the same sequence, the figures for `NC[C@H](CC(=O)O)c1ccc(Cl)cc1` [(R)-Baclofen, reference compound] were “No”, 61,049.3 and 0.1.
On to `CC(C)=CCC[C@@H](C)CCO` [(R)-Citronellol], for which, in assay [1], the “Yeast CLS increase” value is “No” and the PI intensity is reported as 75,290.6. The compound further showed an Outgrowth in assay [2] of 0.1.
Taken in the same sequence, the figures for `O=C(O)[C@H]1CCCN1` [(R)-pyrrolidine-2-carboxylic acid] were “No”, 80,551.7 and 0.1.
Regarding `O=C(O)[C@@H](O)Cc1ccccc1` [(S)-2-Hydroxy-3-phenylpropanoic acid], in assay [1], the “Yeast CLS increase” value is listed as “No” and the PI intensity was 72,969.5. Further, the Outgrowth in assay [2] is recorded as 0.1.
Turning to `Cn1cc(C[C@H](N)C(=O)O)c2ccccc21` [(S)-Indoximod], in assay [1], the “Yeast CLS increase” value is “No” and the PI intensity is given as 78,648.2. In assay [2], this compound registered an Outgrowth of 0.1.
Taken in the same sequence, the figures for `Oc1cc(O)c2c(c1)O[C@H](c1cc(O)c(O)c(O)c1)[C@H](O)C2` [(−)-Epigallocatechin] were “No”, 62,025.6 and 0.1.
As for `N[C@H](C(=O)O)[C@@H]1CC(Cl)=NO1` [Acivicin], in assay [1], the “Yeast CLS increase” value is given as “Yes” and the PI intensity was 41,066.2. This compound showed an Outgrowth in assay [2] of 1.0.
For the compound `CC(CCC(=O)NCC(=O)O)C1CCC2C3CCC4CC(O)CCC4(C)C3CC(O)C12C` (stereo not shown) [Glycodeoxycholic Acid], the PI intensity in assay [1] was 68,981.6.
Regarding `COc1c(O)cc(O)c2c(=O)cc(-c3ccccc3)oc12` [Wogonin], in assay [1], the “Yeast CLS increase” value is listed as “No” and the PI intensity is 76,348.2.
For `CC(C)c1c(C(=O)Nc2ccccc2)c(-c2ccccc2)c(-c2ccc(F)cc2)n1CC[C@@H](O)C[C@@H](O)CC(=O)O` [atorvastatin, reference compound], the “aged cell survival in yeast” value in assay [2] is listed as “survived longer as compared to those without treatment”.
`CN(Cc1cnc2nc(N)nc(N)c2n1)c1ccc(C(=O)N[C@@H](CCC(=O)O)C(=O)O)cc1` [methotrexate, reference compound]: the “aged cell survival in yeast” value in assay [2] is reported as “survived longer as compared to those without treatment”.
As to hemin [reference compound], the “aged cell survival in yeast” value in assay [2] is on record as “survived longer as compared to those without treatment”.
